Measurements from article PMC3968014, “Design and Synthesis of a Library of Lead-Like 2,4-Bisheterocyclic Substituted Thiophenes as Selective Dyrk/Clk Inhibitors” (PLoS ONE, 2014).

Experiments:
[1] = tested on: V79 hamster lung fibroblast cells; experiment: ViaLight Toxicity Assay; type: cell-based; conditions: V79 cells, 5 µM, 48 hours
Protocol: V79 hamster lung fibroblast cells were plated at a density of 45,000 cells per well in a white 96 well plate and allowed to adhere and grow for 24 hours. The compounds were then applied as dilutions in cell culture medium (DMEM with 10% FCS and penicillin/streptomycin mix) at a final concentration of 5, 10, and 20 µM, respectively. The plate was further incubated for 48 hours at 37°C in a humidified atmosphere containing 5% CO2. The ATP level was detected with a LONZA ViaLight™ Plus Kit according to protocol 1 of the vendor's instructions. Luminescence was measured in a POLARstar plate reader (BMG Labtech, Offenburg, Germany). The background luminescence was obtained from equally treated, cell-free wells containing serum, and subtracted from all values. Inhibition values obtained for different compound concentrations were compared using the two-sided Student's t-test; levels of significance thus obtained are indicated by asterisks.

[2] = target: T1, DYRK4 (Homo sapiens, UniProt Q9NR20); experiment: Selectivity panel DYRK4; type: biochemical; conditions: 5 µM inhibitor
T1 construct: purchased Life Technologies (Invitrogen SelectScreen); Dyrk1A, Dyrk2 and CK2α in-house or gifts

[3] = target: T2, CLK4 (Homo sapiens, UniProt Q9HAZ1); experiment: Selectivity panel CLK4; type: biochemical; conditions: 5 µM inhibitor
T2 construct: purchased Life Technologies (Invitrogen SelectScreen); Dyrk1A, Dyrk2 and CK2α in-house or gifts
T2 sequence (Q9HAZ1 whole entry): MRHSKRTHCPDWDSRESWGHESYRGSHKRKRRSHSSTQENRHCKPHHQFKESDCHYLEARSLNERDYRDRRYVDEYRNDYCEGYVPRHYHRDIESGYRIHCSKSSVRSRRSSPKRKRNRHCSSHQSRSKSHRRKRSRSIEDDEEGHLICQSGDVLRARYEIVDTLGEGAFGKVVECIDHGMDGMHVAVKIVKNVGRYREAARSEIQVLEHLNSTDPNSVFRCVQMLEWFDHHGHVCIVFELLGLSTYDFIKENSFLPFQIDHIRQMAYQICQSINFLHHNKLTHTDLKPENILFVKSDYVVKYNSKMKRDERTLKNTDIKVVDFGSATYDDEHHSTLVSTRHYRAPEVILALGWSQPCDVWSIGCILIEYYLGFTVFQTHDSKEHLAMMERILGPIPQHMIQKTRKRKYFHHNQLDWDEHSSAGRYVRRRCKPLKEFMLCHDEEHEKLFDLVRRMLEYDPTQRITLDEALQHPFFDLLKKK

[4] = target: T3, MAPK9 (JNK2) (Homo sapiens, UniProt P45984); experiment: Selectivity panel MAPK9; type: biochemical; conditions: 5 µM inhibitor
T3 construct: purchased Life Technologies (Invitrogen SelectScreen); Dyrk1A, Dyrk2 and CK2α in-house or gifts

[5] = target: T4, MAP3K14 (NIK) (Homo sapiens, UniProt Q99558); experiment: Selectivity panel MAP3K14; type: biochemical; conditions: 5 µM inhibitor
T4 construct: purchased Life Technologies (Invitrogen SelectScreen); Dyrk1A, Dyrk2 and CK2α in-house or gifts

[6] = target: T5, MAP2K1 (MEK1) (Homo sapiens, UniProt Q02750); experiment: Selectivity panel MAP2K1; type: biochemical; conditions: 5 µM inhibitor
T5 construct: purchased Life Technologies (Invitrogen SelectScreen); Dyrk1A, Dyrk2 and CK2α in-house or gifts
T5 sequence (Q02750 whole entry): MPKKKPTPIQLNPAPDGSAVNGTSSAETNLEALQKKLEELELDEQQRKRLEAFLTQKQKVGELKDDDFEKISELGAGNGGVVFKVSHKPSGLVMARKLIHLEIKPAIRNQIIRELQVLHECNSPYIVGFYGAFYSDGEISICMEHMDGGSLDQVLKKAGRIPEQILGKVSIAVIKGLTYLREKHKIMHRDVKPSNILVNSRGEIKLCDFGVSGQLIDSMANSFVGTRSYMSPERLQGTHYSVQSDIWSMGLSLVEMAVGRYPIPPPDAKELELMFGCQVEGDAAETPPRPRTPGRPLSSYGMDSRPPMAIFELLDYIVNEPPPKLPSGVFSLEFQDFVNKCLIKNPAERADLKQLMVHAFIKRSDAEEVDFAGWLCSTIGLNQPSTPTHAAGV

[7] = target: T6, MAP4K2 (GCK) (Homo sapiens, UniProt Q12851); experiment: Selectivity panel MAP4K2; type: biochemical; conditions: 5 µM inhibitor
T6 construct: purchased Life Technologies (Invitrogen SelectScreen); Dyrk1A, Dyrk2 and CK2α in-house or gifts

[8] = target: T7, MINK1 (Homo sapiens, UniProt Q8N4C8); experiment: Selectivity panel MINK1; type: biochemical; conditions: 5 µM inhibitor
T7 construct: purchased Life Technologies (Invitrogen SelectScreen); Dyrk1A, Dyrk2 and CK2α in-house or gifts

[9] = target: T8, TAOK2 (TAO1) (Homo sapiens, UniProt Q9UL54); experiment: Selectivity panel TAOK2; type: biochemical; conditions: 5 µM inhibitor
T8 construct: purchased Life Technologies (Invitrogen SelectScreen); Dyrk1A, Dyrk2 and CK2α in-house or gifts

[10] = target: T9, EEF2K (Homo sapiens, UniProt O00418); experiment: Selectivity panel EEF2K; type: biochemical; conditions: 5 µM inhibitor
T9 construct: purchased Life Technologies (Invitrogen SelectScreen); Dyrk1A, Dyrk2 and CK2α in-house or gifts

[11] = target: T10, AKT1 (PKB alpha) (Homo sapiens, UniProt P31749); experiment: Selectivity panel AKT1; type: biochemical; conditions: 5 µM inhibitor
T10 construct: purchased Life Technologies (Invitrogen SelectScreen); Dyrk1A, Dyrk2 and CK2α in-house or gifts

[12] = target: T11, RPS6KA1 (RSK1) (Homo sapiens, UniProt Q15418); experiment: Selectivity panel RPS6KA1; type: biochemical; conditions: 5 µM inhibitor
T11 construct: purchased Life Technologies (Invitrogen SelectScreen); Dyrk1A, Dyrk2 and CK2α in-house or gifts

[13] = target: T12, RPS6KA5 (MSK1) (Homo sapiens, UniProt O75582); experiment: Selectivity panel RPS6KA5; type: biochemical; conditions: 5 µM inhibitor
T12 construct: purchased Life Technologies (Invitrogen SelectScreen); Dyrk1A, Dyrk2 and CK2α in-house or gifts
T12 sequence (O75582 whole entry): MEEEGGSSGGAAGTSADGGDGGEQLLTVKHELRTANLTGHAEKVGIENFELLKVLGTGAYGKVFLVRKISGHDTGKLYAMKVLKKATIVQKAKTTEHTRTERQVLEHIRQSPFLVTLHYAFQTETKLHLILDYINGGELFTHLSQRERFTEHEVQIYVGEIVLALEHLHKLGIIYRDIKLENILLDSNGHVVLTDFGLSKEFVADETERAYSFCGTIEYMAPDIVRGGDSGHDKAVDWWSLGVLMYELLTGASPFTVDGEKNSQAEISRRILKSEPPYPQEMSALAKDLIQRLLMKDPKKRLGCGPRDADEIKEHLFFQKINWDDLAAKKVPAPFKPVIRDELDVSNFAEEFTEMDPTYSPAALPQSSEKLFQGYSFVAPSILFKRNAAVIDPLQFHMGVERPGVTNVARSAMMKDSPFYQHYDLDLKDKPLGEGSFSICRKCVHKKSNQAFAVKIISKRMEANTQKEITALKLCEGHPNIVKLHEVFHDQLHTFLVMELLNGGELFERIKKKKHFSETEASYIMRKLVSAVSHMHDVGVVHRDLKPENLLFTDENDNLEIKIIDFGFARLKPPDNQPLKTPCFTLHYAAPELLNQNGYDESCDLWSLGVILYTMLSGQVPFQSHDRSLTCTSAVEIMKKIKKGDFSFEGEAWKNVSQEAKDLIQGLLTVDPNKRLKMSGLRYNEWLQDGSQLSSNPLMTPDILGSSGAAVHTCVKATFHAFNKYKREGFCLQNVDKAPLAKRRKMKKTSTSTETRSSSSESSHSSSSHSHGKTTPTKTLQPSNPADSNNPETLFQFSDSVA

[14] = target: T13, RPS6KB1 (p70S6K) (Homo sapiens, UniProt P23443); experiment: Selectivity panel RPS6KB1; type: biochemical; conditions: 5 µM inhibitor
T13 construct: purchased Life Technologies (Invitrogen SelectScreen); Dyrk1A, Dyrk2 and CK2α in-house or gifts

[15] = target: T14, PRKACA (PKA) (Homo sapiens, UniProt P17612); experiment: Selectivity panel PRKACA; type: biochemical; conditions: 5 µM inhibitor
T14 construct: purchased Life Technologies (Invitrogen SelectScreen); Dyrk1A, Dyrk2 and CK2α in-house or gifts

[16] = target: T15, PRKCZ (PKC zeta) (Homo sapiens, UniProt Q05513); experiment: Selectivity panel PRKCZ; type: biochemical; conditions: 5 µM inhibitor
T15 construct: purchased Life Technologies (Invitrogen SelectScreen); Dyrk1A, Dyrk2 and CK2α in-house or gifts

[17] = target: T16, PDK1 (Homo sapiens, UniProt O15530); experiment: Selectivity panel PDK1; type: biochemical; conditions: 5 µM inhibitor
T16 construct: purchased Life Technologies (Invitrogen SelectScreen); Dyrk1A, Dyrk2 and CK2α in-house or gifts

[18] = target: T17, MARK1 (MARK) (Homo sapiens, UniProt Q9P0L2); experiment: Selectivity panel MARK1; type: biochemical; conditions: 5 µM inhibitor
T17 construct: purchased Life Technologies (Invitrogen SelectScreen); Dyrk1A, Dyrk2 and CK2α in-house or gifts

[19] = target: T18, DAPK3 (ZIPK) (Homo sapiens, UniProt O43293); experiment: Selectivity panel DAPK3; type: biochemical; conditions: 5 µM inhibitor
T18 construct: purchased Life Technologies (Invitrogen SelectScreen); Dyrk1A, Dyrk2 and CK2α in-house or gifts

[20] = target: T19, MKNK1 (MNK1) (Homo sapiens, UniProt Q9BUB5); experiment: Selectivity panel MKNK1; type: biochemical; conditions: 5 µM inhibitor
T19 construct: purchased Life Technologies (Invitrogen SelectScreen); Dyrk1A, Dyrk2 and CK2α in-house or gifts

[21] = target: T20, STK22B (TSSK2) (Homo sapiens, UniProt Q96PF2); experiment: Selectivity panel STK22B; type: biochemical; conditions: 5 µM inhibitor
T20 construct: purchased Life Technologies (Invitrogen SelectScreen); Dyrk1A, Dyrk2 and CK2α in-house or gifts
T20 sequence (Q96PF2 whole entry): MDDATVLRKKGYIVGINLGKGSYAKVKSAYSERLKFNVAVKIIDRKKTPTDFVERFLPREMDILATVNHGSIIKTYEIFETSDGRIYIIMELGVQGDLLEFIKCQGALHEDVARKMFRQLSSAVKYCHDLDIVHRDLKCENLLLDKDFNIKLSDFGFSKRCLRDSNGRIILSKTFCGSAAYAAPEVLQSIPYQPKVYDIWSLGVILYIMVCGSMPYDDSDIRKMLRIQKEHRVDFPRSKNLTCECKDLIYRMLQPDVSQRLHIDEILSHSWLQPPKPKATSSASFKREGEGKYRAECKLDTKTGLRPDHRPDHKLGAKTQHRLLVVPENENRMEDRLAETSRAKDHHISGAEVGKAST

[22] = target: T21, PRKD1 (PKC mu, PKD1) (Homo sapiens, UniProt Q15139); experiment: Selectivity panel PRKD1; type: biochemical; conditions: 5 µM inhibitor
T21 construct: purchased Life Technologies (Invitrogen SelectScreen); Dyrk1A, Dyrk2 and CK2α in-house or gifts

[23] = target: T22, PHKG2 (Homo sapiens, UniProt P15735); experiment: Selectivity panel PHKG2; type: biochemical; conditions: 5 µM inhibitor
T22 construct: purchased Life Technologies (Invitrogen SelectScreen); Dyrk1A, Dyrk2 and CK2α in-house or gifts

[24] = target: T23, AURKA (Aurora A) (Homo sapiens, UniProt O14965); experiment: Selectivity panel AURKA; type: biochemical; conditions: 5 µM inhibitor
T23 construct: purchased Life Technologies (Invitrogen SelectScreen); Dyrk1A, Dyrk2 and CK2α in-house or gifts

[25] = target: T24, WEE1 (Homo sapiens, UniProt P30291); experiment: Selectivity panel WEE1; type: biochemical; conditions: 5 µM inhibitor
T24 construct: purchased Life Technologies (Invitrogen SelectScreen); Dyrk1A, Dyrk2 and CK2α in-house or gifts
T24 sequence (P30291 whole entry): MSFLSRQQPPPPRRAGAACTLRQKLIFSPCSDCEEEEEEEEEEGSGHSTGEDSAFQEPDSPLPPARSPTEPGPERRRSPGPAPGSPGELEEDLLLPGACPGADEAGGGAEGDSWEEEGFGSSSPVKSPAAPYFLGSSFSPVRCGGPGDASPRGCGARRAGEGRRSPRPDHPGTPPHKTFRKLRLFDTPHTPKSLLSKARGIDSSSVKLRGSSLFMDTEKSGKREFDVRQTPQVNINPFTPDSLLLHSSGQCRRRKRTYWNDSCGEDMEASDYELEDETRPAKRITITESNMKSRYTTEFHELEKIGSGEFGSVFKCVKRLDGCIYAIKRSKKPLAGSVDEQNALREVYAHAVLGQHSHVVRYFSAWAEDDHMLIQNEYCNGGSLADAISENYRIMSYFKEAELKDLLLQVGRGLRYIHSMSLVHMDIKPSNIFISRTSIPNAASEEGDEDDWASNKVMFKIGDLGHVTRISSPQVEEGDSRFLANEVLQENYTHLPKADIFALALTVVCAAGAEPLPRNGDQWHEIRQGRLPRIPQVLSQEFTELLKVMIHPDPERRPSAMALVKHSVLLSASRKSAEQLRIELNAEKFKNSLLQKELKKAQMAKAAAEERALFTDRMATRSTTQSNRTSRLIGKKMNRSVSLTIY

[26] = target: T25, IKBKB (IKK beta) (Homo sapiens, UniProt O14920); experiment: Selectivity panel IKBKB; type: biochemical; conditions: 5 µM inhibitor
T25 construct: purchased Life Technologies (Invitrogen SelectScreen); Dyrk1A, Dyrk2 and CK2α in-house or gifts

[27] = target: T26, NEK7 (Homo sapiens, UniProt Q8TDX7); experiment: Selectivity panel NEK7; type: biochemical; conditions: 5 µM inhibitor
T26 construct: purchased Life Technologies (Invitrogen SelectScreen); Dyrk1A, Dyrk2 and CK2α in-house or gifts
T26 sequence (Q8TDX7 whole entry): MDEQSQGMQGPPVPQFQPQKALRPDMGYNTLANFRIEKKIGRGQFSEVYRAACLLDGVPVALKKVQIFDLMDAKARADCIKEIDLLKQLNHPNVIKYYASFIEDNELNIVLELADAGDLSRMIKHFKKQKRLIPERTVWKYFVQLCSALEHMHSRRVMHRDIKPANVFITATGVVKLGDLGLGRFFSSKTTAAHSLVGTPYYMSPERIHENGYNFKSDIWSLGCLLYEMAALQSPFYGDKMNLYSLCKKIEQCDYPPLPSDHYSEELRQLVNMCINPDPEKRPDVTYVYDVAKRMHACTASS

[28] = target: T27, TBK1 (Homo sapiens, UniProt Q9UHD2); experiment: Selectivity panel TBK1; type: biochemical; conditions: 5 µM inhibitor
T27 construct: purchased Life Technologies (Invitrogen SelectScreen); Dyrk1A, Dyrk2 and CK2α in-house or gifts

[29] = target: T28, PIK3CA/PIK3R1 (Homo sapiens, UniProt P42336); experiment: Selectivity panel PIK3CA/PIK3R1; type: biochemical; conditions: 5 µM inhibitor
T28 construct: purchased Life Technologies (Invitrogen SelectScreen); Dyrk1A, Dyrk2 and CK2α in-house or gifts

[30] = target: T29, PLK2/SNK (Homo sapiens, UniProt Q9NYY3); experiment: Selectivity panel PLK2/SNK; type: biochemical; conditions: 5 µM inhibitor
T29 construct: purchased Life Technologies (Invitrogen SelectScreen); Dyrk1A, Dyrk2 and CK2α in-house or gifts
T29 sequence (Q9NYY3 whole entry): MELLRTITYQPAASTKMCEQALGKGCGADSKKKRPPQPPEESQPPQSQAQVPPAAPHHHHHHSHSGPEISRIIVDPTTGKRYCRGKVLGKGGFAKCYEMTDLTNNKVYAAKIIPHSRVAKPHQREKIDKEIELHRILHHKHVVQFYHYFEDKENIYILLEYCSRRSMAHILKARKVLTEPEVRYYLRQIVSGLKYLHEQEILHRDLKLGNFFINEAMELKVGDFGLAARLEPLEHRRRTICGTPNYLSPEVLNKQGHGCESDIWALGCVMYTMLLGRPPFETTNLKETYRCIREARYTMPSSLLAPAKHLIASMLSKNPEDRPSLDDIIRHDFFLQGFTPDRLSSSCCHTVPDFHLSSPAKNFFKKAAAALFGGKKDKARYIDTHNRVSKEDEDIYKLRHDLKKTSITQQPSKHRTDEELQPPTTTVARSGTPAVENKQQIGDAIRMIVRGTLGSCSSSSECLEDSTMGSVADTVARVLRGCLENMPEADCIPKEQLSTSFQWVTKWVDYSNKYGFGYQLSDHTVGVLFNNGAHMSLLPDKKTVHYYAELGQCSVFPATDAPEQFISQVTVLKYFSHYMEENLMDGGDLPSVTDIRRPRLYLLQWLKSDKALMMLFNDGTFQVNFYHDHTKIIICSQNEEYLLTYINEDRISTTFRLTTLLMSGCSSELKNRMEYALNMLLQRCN

[31] = target: T30, ZAK (Homo sapiens, UniProt Q9NYL2); experiment: Selectivity panel ZAK; type: biochemical; conditions: 5 µM inhibitor
T30 construct: purchased Life Technologies (Invitrogen SelectScreen); Dyrk1A, Dyrk2 and CK2α in-house or gifts

[32] = target: T31, RAF1 (cRAF) Y340D Y341D (Homo sapiens, UniProt P04049, Y340D/Y341D); experiment: Selectivity panel RAF1; type: biochemical; conditions: 5 µM inhibitor
T31 construct: purchased Life Technologies (Invitrogen SelectScreen); Dyrk1A, Dyrk2 and CK2α in-house or gifts

[33] = target: T32, LYN A (Homo sapiens, UniProt P07948); experiment: Selectivity panel LYN A; type: biochemical; conditions: 5 µM inhibitor
T32 construct: purchased Life Technologies (Invitrogen SelectScreen); Dyrk1A, Dyrk2 and CK2α in-house or gifts

[34] = target: T33, JAK2 (Homo sapiens, UniProt O60674); experiment: Selectivity panel JAK2; type: biochemical; conditions: 5 µM inhibitor
T33 construct: purchased Life Technologies (Invitrogen SelectScreen); Dyrk1A, Dyrk2 and CK2α in-house or gifts

[35] = target: T34, TNK2 (ACK) (Homo sapiens, UniProt Q07912); experiment: Selectivity panel TNK2; type: biochemical; conditions: 5 µM inhibitor
T34 construct: purchased Life Technologies (Invitrogen SelectScreen); Dyrk1A, Dyrk2 and CK2α in-house or gifts

[36] = target: T35, ABL1 (Homo sapiens, UniProt P00519); experiment: Selectivity panel ABL1; type: biochemical; conditions: 5 µM inhibitor
T35 construct: purchased Life Technologies (Invitrogen SelectScreen); Dyrk1A, Dyrk2 and CK2α in-house or gifts
T35 sequence (P00519 whole entry): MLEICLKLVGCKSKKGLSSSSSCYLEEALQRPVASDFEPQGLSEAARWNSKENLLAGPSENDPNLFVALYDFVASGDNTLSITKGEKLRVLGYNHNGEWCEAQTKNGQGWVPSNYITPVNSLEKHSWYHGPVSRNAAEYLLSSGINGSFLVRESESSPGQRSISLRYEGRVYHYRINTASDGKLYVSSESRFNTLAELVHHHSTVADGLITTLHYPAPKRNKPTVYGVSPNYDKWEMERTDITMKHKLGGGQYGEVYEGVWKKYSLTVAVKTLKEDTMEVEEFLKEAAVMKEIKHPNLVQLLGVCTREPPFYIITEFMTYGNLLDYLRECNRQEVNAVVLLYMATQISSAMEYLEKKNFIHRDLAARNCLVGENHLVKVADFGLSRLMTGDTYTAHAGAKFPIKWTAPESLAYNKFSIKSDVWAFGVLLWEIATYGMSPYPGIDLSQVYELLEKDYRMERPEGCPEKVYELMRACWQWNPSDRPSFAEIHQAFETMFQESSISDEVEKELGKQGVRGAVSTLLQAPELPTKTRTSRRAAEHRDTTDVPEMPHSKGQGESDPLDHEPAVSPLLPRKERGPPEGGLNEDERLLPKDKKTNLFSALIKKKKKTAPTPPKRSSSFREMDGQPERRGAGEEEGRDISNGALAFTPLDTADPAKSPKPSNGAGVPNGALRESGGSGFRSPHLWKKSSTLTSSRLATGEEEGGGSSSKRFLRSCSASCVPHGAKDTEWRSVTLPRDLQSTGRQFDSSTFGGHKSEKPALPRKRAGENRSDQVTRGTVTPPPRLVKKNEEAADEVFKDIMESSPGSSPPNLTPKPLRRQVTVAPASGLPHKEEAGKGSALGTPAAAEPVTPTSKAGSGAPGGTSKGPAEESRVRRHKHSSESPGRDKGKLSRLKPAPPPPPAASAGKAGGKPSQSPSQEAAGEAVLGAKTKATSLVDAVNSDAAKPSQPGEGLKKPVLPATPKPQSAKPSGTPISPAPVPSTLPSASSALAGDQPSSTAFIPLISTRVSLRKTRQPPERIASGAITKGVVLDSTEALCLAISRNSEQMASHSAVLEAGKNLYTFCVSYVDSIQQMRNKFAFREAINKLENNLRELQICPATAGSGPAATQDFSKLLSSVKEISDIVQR

[37] = target: T36, SRC (Homo sapiens, UniProt P12931); experiment: Selectivity panel SRC; type: biochemical; conditions: 5 µM inhibitor
T36 construct: purchased Life Technologies (Invitrogen SelectScreen); Dyrk1A, Dyrk2 and CK2α in-house or gifts

| SMILES | influence on cell viability (cellular ATP levels) [1] | inhibition at 5 µM [2] | inhibition at 5 µM [3] | inhibition at 5 µM [4] | inhibition at 5 µM [5] | inhibition at 5 µM [6] | inhibition at 5 µM [7] | inhibition at 5 µM [8] | inhibition at 5 µM [9] | inhibition at 5 µM [10] | inhibition at 5 µM [11] | inhibition at 5 µM [12] | inhibition at 5 µM [13] | inhibition at 5 µM [14] | inhibition at 5 µM [15] | inhibition at 5 µM [16] | inhibition at 5 µM [17] | inhibition at 5 µM [18] | inhibition at 5 µM [19] | inhibition at 5 µM [20] | also measured |
| --- | --- | --- | --- | --- | --- | --- | --- | --- | --- | --- | --- | --- | --- | --- | --- | --- | --- | --- | --- | --- | --- |
| c1cncc(-c2cc(-c3cncs3)cs2)c1 [Compound 29, 3-[4-(1,3-thiazol-5-yl)thiophen-2-yl]pyridine] | no influence on cell viability | 13% | 105% | -6% | 2% | 1% | 32% | 36% | -6% | 0% | 9% | 2% | 15% | -2% | 1% | -23% | -10% | 0% | -1% | 83% | inhibition at 5 µM [21]: -2%; inhibition at 5 µM [22]: -1%; inhibition at 5 µM [23]: -12%; inhibition at 5 µM [24]: 5%; inhibition at 5 µM [25]: 17%; inhibition at 5 µM [26]: 8%; inhibition at 5 µM [27]: 0%; inhibition at 5 µM [28]: 3%; inhibition at 5 µM [29]: 21%; inhibition at 5 µM [30]: -3%; inhibition at 5 µM [31]: 11%; inhibition at 5 µM [32]: 36%; inhibition at 5 µM [33]: 16%; inhibition at 5 µM [34]: -2%; inhibition at 5 µM [35]: 8%; inhibition at 5 µM [36]: 2%; inhibition at 5 µM [37]: -8% |
| c1cncc(-c2csc(-c3cncs3)c2)c1 [Compound 48, 3-[5-(1,3-thiazol-5-yl)thiophen-3-yl]pyridine] | no influence on cell viability | 12% | 99% | -6% | 5% | 2% | 6% | 19% | -6% | 1% | 3% | 4% | 10% | -4% | 3% | -25% | 7% | 1% | -5% | 47% | inhibition at 5 µM [21]: -2%; inhibition at 5 µM [22]: -5%; inhibition at 5 µM [23]: -11%; inhibition at 5 µM [24]: 2%; inhibition at 5 µM [25]: 10%; inhibition at 5 µM [26]: 12%; inhibition at 5 µM [27]: -7%; inhibition at 5 µM [28]: 8%; inhibition at 5 µM [29]: 12%; inhibition at 5 µM [30]: 1%; inhibition at 5 µM [31]: 11%; inhibition at 5 µM [32]: 37%; inhibition at 5 µM [33]: 13%; inhibition at 5 µM [34]: -4%; inhibition at 5 µM [35]: 8%; inhibition at 5 µM [36]: 6%; inhibition at 5 µM [37]: -4% |
